The record followed here is ChEMBL document CHEMBL1129781, “Inhibition of protein phosphatase 2A by cantharidin analogues” (Bioorg Med Chem Lett, 1996).

For test [1], the target named is Serine/threonine-protein phosphatase 2A 65 kDa regulatory subunit A alpha isoform (Mus musculus, UniProt Q76MZ3). The experiment in a line: Compound was tested for inhibitory concentration of Protein Phosphatase 2A (PP2A).
For test [2], the species on record is Mus musculus. The experiment in a line: Inhibition of Protein Phosphatase 2A (PP2A) partially purified from mouse brain. More on the design: concentration or dose not given beside the values. Particulars: concentration not given here. Type of test: tissue-based.
Test [3] is described as follows: Compound was tested for inhibition of specific [3H]cantharidin binding to CBP: Range=4-8. More on the design: species or system Mus musculus.
For test [4], the species on record is Mus musculus. The experiment in a line: Compound was tested for inhibition of cantharidin-binding protein(CBP) phosphatase isolated from mouse liver: Range=92-95. The note with it: concentration not given here.
Test [5] can be described thus: Compound was tested for inhibition of specific [3H]cantharidin binding to CBP: Range= 200->100000. More on the design: species or system Mus musculus.
Test [6] is filed under the species Mus musculus. The experiment in a line: Compound was tested for inhibition of cantharidin-binding protein(CBP) phosphatase isolated from mouse liver. More on the design: concentration or dose not given beside the values. The note with it: concentration not given here.
The nature of test [7]: Compound was tested for inhibition of specific [3H]cantharidin binding to CBP: Range= 10-50. Also on record: species or system Mus musculus.
For test [8], the species on record is Mus musculus. As to the kind of experiment: Compound was tested for inhibition of cantharidin-binding protein(CBP) phosphatase isolated from mouse liver: Range= 22-51. Particulars: concentration not given here.
Test [9] can be described thus: Compound was tested for inhibition of specific [3H]cantharidin binding to CBP. Also on record: species or system Mus musculus.

A value given as a limit tells only on which side of the number the result lay.

Serine/threonine-protein phosphatase 2A 65 kDa regulatory subunit A alpha isoform, sequence (Q76MZ3 whole entry, canonical isoform): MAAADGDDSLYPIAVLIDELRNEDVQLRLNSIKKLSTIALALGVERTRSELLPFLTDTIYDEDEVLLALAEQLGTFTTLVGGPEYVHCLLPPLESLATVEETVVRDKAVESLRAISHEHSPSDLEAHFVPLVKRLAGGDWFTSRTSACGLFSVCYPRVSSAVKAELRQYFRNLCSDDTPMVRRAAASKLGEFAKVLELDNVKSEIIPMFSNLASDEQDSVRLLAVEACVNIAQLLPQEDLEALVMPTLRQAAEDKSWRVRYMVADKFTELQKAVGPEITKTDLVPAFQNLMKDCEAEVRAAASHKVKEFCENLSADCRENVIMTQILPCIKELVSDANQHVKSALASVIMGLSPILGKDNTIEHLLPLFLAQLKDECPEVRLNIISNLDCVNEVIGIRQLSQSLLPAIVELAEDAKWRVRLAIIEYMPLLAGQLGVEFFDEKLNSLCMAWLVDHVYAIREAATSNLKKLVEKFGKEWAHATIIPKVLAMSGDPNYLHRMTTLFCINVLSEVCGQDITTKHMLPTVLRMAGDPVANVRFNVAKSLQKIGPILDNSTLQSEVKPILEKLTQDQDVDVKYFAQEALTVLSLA

`CC12C(=O)OC(=O)C1(C)C1CCC2O1` (stereo unspecified): the IC50 turned out to be 8 µM in test [1] and 0.004 µM in test [3]. Further, the inhibition came out at 95% in the test listed under Mus musculus [2] and 92% in the test filed under Mus musculus [4]. For `CCOC(=O)C1CC2OC1C(C(=O)O)C2C(=O)O` (stereo unspecified), the IC50 in test [5] is greater than 100 µM. The compound further came in with an inhibition in the test listed under Mus musculus [6] of 0%.

Regarding `O=C(O)C1CC2C=CC1C2` (stereo unspecified), the inhibition in the test listed under Mus musculus [2] came out at 3.8%. The same measure, in the same setting: as for `O=C1OC(=O)C2C3CCC(C3)C12` (stereo in doubt; 11), the figure is 13.3%; as for `O=C1OC(=O)C2C3CCC(C3)C12` (stereo in doubt; 7), 38.7%. Same read-out and setting: the result for `O=C(O)C1C2C=CC(C2)C1C(=O)O` (stereo unspecified) reads 17.2%. Same read-out and setting: the result for `O=C1OC(=O)C2CC=CCC12` (stereo unspecified) reads 24%; that for `O=C1OC(=O)[C@H]2[C@@H]1[C@H]1C=C[C@H]2C1` (stereo in doubt; 5), 48.1%; that for `O=C1OC(=O)C2CCCCC12` (stereo unspecified), 9.2%. Consider `O=C(O)C1C2C=CC(O2)C1C(=O)O` (stereo unspecified), for which 300 µM corresponded to half-maximal inhibition in test [1] (IC50). In the test listed under Mus musculus [2], this compound had an inhibition of 80.3%. `O=C(O)[C@@H]1[C@H](C(=O)O)[C@H]2CC[C@@H]1O2` [ENDOTHALL] yielded an IC50 in [7] of 0.05 µM. In addition, the inhibition in the test filed under Mus musculus [8] amounted to 51%.

As for `N#CCC1CC2OC1C(C(=O)O)C2C(=O)O` (stereo unspecified), the IC50 in test [5] is greater than 100 µM. This compound also registered an inhibition in the test filed under Mus musculus [6] of 0%. For the compound `O=C(O)C1CC2OC1C(C(=O)O)C2C(=O)O` (stereo unspecified), the IC50 in test [7] was 0.05 µM. Moreover, the inhibition in the test filed under Mus musculus [8] is 51%.

For the compound `CC1(C(=O)O)C2CCC(O2)C1(C)C(=O)O` (stereo unspecified) [CANTHARIDIC_ACID], the concentration for half-maximal inhibition (IC50) in [9] was 4 µM. The inhibition in the test filed under Mus musculus [6] came out at 95%. `CC1(C(=O)O)C2CCC(O2)C1C(=O)O` (stereo unspecified): the IC50 in test [7] worked out at 0.05 µM. For the same compound, in the test filed under Mus musculus [8], the inhibition was found to be 51%. As to `O=C1OC(=O)C2C3CCC(O3)C12` (stereo unspecified) [DEMETHYL-CANTHARIDIN], the IC50 in test [1] came out at 70 µM. In the test listed under Mus musculus [2], this compound had an inhibition of 88.3%. `O=C1OC(=O)C23CCCC12C1CCC3O1` (stereo unspecified) showed an IC50 in [9] of 4 µM. Also, the inhibition in the test listed under Mus musculus [6] turned out to be 95%. `CC12CCC(C)(O1)C(C(=O)O)C2C(=O)O` (stereo unspecified) came in with an IC50 in test [5] greater than 100 µM. In addition, the inhibition in the test filed under Mus musculus [6] worked out at 0%. In the case of `O=C1OC(=O)[C@H]2[C@@H]1[C@H]1C=C[C@H]2C1` (stereo in doubt; 6), in the test listed under Mus musculus [2], the inhibition came to 48.8%. Regarding `O=C(O)C1CC=CCC1C(=O)O` (stereo unspecified), in the test filed under Mus musculus [2], the inhibition turned out to be 12.2%.

`O=C1OC(=O)C2C3C=CC(O3)C12` (stereo unspecified) displayed an IC50 in test [1] of 40 µM. In addition, the inhibition in the test listed under Mus musculus [2] was determined as 95.2%. `COC(=O)C1CC2C=CC1C2` (stereo unspecified): in the test listed under Mus musculus [2], the inhibition was determined as 30.8%.

What is called IC50 is the concentration that gives 50% inhibition. A word on the inhibition: it is the percentage by which the read-out fell short of the control.
